{"source": "paper PMC4917279", "about": "(Journal of Medicinal Chemistry, 2016)", "assay_in_all_cases": "KINOMEscan", "assay_type_in_all_cases": "binding", "conditions_in_all_cases": "read-out: %Ctrl @ 1000 nM", "key": {"PIP5K1C": {"biological_target": "T1, PIP5K1C (Homo sapiens, UniProt O60331)", "T1 construct": "purchased DiscoveRx KINOMEscan"}, "NLK": {"biological_target": "T2, NLK (Homo sapiens, UniProt Q9UBE8)", "T2 construct": "purchased DiscoveRx KINOMEscan"}, "IRAK3": {"biological_target": "T3, IRAK3 (Homo sapiens, UniProt Q9Y616)", "T3 construct": "purchased DiscoveRx KINOMEscan"}, "ERN1": {"biological_target": "T4, ERN1 (Homo sapiens, UniProt O75460)", "T4 construct": "purchased DiscoveRx KINOMEscan"}, "TTK": {"biological_target": "T5, TTK (Homo sapiens, UniProt P33981)", "T5 construct": "purchased DiscoveRx KINOMEscan"}, "YSK4": {"biological_target": "T6, YSK4 (Homo sapiens, UniProt Q56UN5)", "T6 construct": "purchased DiscoveRx"}, "GRK4": {"biological_target": "T7, GRK4 (Homo sapiens, UniProt P32298)", "T7 construct": "purchased DiscoveRx KINOMEscan"}, "PIP5K1A": {"biological_target": "T8, PIP5K1A (Homo sapiens, UniProt Q99755)", "T8 construct": "purchased DiscoveRx KINOMEscan"}, "TRPM6": {"biological_target": "T9, TRPM6 (Homo sapiens, UniProt Q9BX84)", "T9 construct": "purchased DiscoveRx KINOMEscan"}, "SNRK": {"biological_target": "T10, SNRK (Homo sapiens, UniProt Q9NRH2)", "T10 construct": "purchased DiscoveRx KINOMEscan"}, "MEK6": {"biological_target": "T11, MEK6 (Homo sapiens, UniProt P52564)", "T11 construct": "purchased DiscoveRx KINOMEscan"}, "MAP3K15": {"biological_target": "T12, MAP3K15 (Homo sapiens, UniProt Q6ZN16)", "T12 construct": "purchased DiscoveRx KINOMEscan"}, "KIT(L576P)": {"biological_target": "T13, KIT(L576P) (Homo sapiens, UniProt P10721, L576P)", "T13 construct": "purchased DiscoveRx KINOMEscan", "T13 sequence (P10721 26-976 L576P)": "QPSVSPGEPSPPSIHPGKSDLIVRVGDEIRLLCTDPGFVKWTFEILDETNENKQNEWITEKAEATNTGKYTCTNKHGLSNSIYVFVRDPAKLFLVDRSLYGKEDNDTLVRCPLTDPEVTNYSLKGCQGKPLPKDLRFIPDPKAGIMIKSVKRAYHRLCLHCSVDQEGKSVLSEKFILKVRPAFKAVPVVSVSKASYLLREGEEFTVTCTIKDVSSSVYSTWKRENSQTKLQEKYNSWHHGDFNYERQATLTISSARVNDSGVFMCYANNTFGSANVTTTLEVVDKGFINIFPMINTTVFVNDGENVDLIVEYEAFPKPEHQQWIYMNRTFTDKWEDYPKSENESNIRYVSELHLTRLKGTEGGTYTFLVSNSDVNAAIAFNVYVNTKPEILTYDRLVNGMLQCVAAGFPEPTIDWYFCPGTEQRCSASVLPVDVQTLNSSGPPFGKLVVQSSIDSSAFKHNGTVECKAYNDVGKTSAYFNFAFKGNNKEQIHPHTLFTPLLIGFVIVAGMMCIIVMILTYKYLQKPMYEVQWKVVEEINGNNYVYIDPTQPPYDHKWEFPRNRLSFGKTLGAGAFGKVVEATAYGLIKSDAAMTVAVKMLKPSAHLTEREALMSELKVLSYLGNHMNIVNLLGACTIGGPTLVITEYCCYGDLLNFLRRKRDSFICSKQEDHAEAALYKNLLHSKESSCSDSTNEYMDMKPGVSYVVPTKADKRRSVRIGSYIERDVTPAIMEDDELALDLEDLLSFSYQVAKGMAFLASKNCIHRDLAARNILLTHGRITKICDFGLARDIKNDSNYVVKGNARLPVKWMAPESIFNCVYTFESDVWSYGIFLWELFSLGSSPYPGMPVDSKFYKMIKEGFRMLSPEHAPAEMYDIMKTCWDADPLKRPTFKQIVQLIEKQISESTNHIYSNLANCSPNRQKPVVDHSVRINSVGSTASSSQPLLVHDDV"}, "STK16": {"biological_target": "T14, STK16 (Homo sapiens, UniProt O75716)", "T14 construct": "purchased DiscoveRx KINOMEscan"}, "EGFR(T790M)": {"biological_target": "T15, EGFR(T790M) (Homo sapiens, UniProt P00533, T790M)", "T15 construct": "purchased DiscoveRx KINOMEscan"}, "TAOK2": {"biological_target": "T16, TAOK2 (Homo sapiens, UniProt Q9UL54)", "T16 construct": "purchased DiscoveRx KINOMEscan"}, "CDK8": {"biological_target": "T17, CDK8 (Homo sapiens, UniProt P49336)", "T17 construct": "purchased DiscoveRx KINOMEscan"}, "INSRR": {"biological_target": "T18, INSRR (Homo sapiens, UniProt P14616)", "T18 construct": "purchased DiscoveRx KINOMEscan"}, "PRKX": {"biological_target": "T19, PRKX (Homo sapiens, UniProt P51817)", "T19 construct": "purchased DiscoveRx KINOMEscan"}, "CSF1R": {"biological_target": "T20, CSF1R (Homo sapiens, UniProt P07333)", "T20 construct": "purchased DiscoveRx KINOMEscan", "T20 sequence (P07333 20-972)": "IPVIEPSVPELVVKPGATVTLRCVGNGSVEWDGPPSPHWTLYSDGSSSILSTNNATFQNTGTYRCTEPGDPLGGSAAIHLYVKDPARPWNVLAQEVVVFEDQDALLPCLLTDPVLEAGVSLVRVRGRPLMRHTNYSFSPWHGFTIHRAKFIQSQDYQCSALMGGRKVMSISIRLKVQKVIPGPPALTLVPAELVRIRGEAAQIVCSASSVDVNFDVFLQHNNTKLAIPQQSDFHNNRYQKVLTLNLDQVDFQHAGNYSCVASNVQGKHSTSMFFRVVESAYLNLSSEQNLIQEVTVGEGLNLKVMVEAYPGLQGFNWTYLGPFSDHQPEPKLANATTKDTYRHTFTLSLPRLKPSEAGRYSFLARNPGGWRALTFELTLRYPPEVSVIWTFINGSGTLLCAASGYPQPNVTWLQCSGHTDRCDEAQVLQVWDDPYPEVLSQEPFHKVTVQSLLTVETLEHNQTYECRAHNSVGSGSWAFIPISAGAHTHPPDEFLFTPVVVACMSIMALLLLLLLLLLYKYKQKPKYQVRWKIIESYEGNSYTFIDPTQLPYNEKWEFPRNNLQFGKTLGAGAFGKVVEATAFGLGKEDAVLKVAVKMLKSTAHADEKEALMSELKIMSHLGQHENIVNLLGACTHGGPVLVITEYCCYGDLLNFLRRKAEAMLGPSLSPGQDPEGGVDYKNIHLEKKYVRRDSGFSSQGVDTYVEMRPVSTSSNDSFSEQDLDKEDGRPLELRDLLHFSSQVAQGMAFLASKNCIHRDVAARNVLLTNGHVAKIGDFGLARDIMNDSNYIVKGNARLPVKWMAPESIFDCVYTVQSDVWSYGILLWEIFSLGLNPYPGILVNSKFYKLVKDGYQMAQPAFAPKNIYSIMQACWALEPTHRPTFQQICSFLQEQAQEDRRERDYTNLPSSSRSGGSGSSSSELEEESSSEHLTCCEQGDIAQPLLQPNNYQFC"}, "FGR": {"biological_target": "T21, FGR (Homo sapiens, UniProt P09769)", "T21 construct": "purchased DiscoveRx KINOMEscan"}, "PIP5K2B": {"biological_target": "T22, PIP5K2B (Homo sapiens, UniProt P78356)", "T22 construct": "purchased DiscoveRx KINOMEscan"}, "TRKA": {"biological_target": "T23, TRKA (Homo sapiens, UniProt P04629)", "T23 construct": "purchased DiscoveRx KINOMEscan", "T23 sequence (P04629 33-796)": "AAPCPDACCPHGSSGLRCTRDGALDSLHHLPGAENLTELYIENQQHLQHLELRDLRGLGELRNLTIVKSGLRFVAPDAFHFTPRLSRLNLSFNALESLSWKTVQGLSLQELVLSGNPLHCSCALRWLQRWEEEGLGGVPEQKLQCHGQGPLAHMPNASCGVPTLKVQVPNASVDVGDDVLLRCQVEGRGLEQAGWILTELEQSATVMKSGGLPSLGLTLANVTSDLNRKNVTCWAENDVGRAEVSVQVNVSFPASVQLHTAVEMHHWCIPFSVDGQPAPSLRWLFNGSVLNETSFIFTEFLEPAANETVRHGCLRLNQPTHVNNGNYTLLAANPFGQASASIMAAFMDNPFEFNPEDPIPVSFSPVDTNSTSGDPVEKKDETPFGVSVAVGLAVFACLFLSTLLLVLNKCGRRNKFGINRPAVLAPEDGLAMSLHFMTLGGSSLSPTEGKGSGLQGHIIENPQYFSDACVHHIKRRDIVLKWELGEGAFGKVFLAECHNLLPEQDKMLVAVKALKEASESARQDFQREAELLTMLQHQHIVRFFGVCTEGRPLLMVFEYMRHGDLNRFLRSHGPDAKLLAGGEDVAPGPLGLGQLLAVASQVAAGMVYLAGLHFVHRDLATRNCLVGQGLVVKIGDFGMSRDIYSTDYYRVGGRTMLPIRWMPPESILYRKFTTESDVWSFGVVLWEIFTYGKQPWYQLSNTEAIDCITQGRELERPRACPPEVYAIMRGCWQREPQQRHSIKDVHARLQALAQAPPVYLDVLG"}, "KIT(D816H)": {"biological_target": "T24, KIT(D816H) (Homo sapiens, UniProt P10721, D816H)", "T24 construct": "purchased DiscoveRx KINOMEscan", "T24 sequence (P10721 26-976 D816H)": "as the sequence (P10721 26-976 L576P) above, with P551L, D791H counted along it"}, "[1]": {"biological_target": "T25, RPS6KA4(Kin.Dom.1-N-terminal) (Homo sapiens, UniProt O75676)", "T25 construct": "RPS6KA4(Kin.Dom.1-N-terminal); purchased DiscoveRx KINOMEscan", "T25 sequence (O75676 33-371 limits assumed)": "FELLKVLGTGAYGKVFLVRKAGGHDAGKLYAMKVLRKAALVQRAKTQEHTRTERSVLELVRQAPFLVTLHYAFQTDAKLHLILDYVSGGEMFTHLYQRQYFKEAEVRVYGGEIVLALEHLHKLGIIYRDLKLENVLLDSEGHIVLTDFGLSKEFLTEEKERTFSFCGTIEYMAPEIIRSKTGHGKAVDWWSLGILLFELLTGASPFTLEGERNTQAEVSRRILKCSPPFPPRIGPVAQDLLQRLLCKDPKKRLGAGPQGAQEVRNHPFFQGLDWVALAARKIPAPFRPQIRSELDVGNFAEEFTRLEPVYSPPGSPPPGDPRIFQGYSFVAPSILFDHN"}, "CSK": {"biological_target": "T26, CSK (Homo sapiens, UniProt P41240)", "T26 construct": "purchased DiscoveRx KINOMEscan"}, "[2]": {"biological_target": "T27, ABL1(T315I)-nonphosphorylated (Homo sapiens, UniProt P00519, T315I)", "T27 construct": "purchased DiscoveRx (KINOMEscan service)"}, "NEK4": {"biological_target": "T28, NEK4 (Homo sapiens, UniProt P51957)", "T28 construct": "purchased DiscoveRx KINOMEscan"}, "SNARK": {"biological_target": "T29, SNARK (Homo sapiens, UniProt Q9H093)", "T29 construct": "purchased DiscoveRx KINOMEscan"}, "HUNK": {"biological_target": "T30, HUNK (Homo sapiens, UniProt P57058)", "T30 construct": "purchased DiscoveRx KINOMEscan"}, "ITK": {"biological_target": "T31, ITK (Homo sapiens, UniProt Q08881)", "T31 construct": "purchased DiscoveRx KINOMEscan"}, "NDR1": {"biological_target": "T32, NDR1 (Homo sapiens, UniProt Q15208)", "T32 construct": "purchased DiscoveRx KINOMEscan"}, "ADCK4": {"biological_target": "T33, ADCK4 (Homo sapiens, UniProt Q96D53)", "T33 construct": "purchased DiscoveRx KINOMEscan"}, "ULK1": {"biological_target": "T34, ULK1 (Homo sapiens, UniProt O75385)", "T34 construct": "purchased DiscoveRx KINOMEscan"}, "VRK2": {"biological_target": "T35, VRK2 (Homo sapiens, UniProt Q86Y07)", "T35 construct": "purchased DiscoveRx KINOMEscan"}, "ULK2": {"biological_target": "T36, ULK2 (Homo sapiens, UniProt Q8IYT8)", "T36 construct": "purchased DiscoveRx KINOMEscan"}, "SRPK3": {"biological_target": "T37, SRPK3 (Homo sapiens, UniProt Q9UPE1)", "T37 construct": "purchased DiscoveRx KINOMEscan"}, "BLK": {"biological_target": "T38, BLK (Homo sapiens, UniProt P51451)", "T38 construct": "purchased DiscoveRx KINOMEscan"}, "PRKCD": {"biological_target": "T39, PRKCD (Homo sapiens, UniProt Q05655)", "T39 construct": "purchased DiscoveRx KINOMEscan"}, "MYO3A": {"biological_target": "T40, MYO3A (Homo sapiens, UniProt Q8NEV4)", "T40 construct": "purchased DiscoveRx KINOMEscan"}, "ULK3": {"biological_target": "T41, ULK3 (Homo sapiens, UniProt Q6PHR2)", "T41 construct": "purchased DiscoveRx KINOMEscan"}, "VEGFR2": {"biological_target": "T42, VEGFR2 (Homo sapiens, UniProt P35968)", "T42 construct": "purchased DiscoveRx KINOMEscan", "T42 sequence (P35968 20-1356)": "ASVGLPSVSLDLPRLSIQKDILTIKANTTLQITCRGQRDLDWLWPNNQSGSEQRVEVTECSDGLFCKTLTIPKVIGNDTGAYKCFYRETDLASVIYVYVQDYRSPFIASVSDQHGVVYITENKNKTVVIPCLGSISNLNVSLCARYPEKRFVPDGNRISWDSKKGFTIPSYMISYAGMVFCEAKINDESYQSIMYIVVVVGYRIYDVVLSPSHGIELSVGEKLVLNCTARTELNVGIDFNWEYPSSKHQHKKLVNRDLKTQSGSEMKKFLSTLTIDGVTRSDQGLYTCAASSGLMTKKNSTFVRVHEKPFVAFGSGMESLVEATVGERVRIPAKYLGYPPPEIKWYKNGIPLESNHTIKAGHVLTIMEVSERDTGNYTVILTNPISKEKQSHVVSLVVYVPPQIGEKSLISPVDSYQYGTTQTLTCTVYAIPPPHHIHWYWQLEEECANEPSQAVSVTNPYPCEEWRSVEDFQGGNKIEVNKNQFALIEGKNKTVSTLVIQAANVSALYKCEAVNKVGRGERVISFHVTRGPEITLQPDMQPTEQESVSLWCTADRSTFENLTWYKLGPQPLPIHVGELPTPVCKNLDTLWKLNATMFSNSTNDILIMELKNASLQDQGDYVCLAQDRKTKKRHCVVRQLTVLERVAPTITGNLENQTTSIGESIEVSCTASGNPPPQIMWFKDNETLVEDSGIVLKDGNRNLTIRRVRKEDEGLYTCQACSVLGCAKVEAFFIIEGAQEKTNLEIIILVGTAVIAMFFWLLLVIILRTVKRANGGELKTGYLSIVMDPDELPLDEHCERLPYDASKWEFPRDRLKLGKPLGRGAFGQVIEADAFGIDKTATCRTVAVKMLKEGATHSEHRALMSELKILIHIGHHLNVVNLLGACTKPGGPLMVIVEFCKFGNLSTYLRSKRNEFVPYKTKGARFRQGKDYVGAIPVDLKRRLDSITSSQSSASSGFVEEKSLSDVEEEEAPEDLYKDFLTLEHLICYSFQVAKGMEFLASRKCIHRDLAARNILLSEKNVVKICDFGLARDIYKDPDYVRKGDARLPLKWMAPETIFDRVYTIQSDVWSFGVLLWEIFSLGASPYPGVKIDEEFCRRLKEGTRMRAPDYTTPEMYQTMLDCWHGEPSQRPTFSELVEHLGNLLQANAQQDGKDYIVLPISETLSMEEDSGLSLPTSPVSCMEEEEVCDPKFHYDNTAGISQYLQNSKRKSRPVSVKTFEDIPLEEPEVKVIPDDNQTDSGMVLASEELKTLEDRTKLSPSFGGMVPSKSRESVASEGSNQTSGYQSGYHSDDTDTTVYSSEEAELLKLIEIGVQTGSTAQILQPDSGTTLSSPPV"}, "[3]": {"biological_target": "T43, ABL1(Q252H)-nonphosphorylated (Homo sapiens, UniProt P00519, Q252H)", "T43 construct": "purchased DiscoveRx (KINOMEscan service)"}}, "data": [{"smiles": "CCN(C(=O)CO)[C@H]1CN(/C(=N\\C#N)Nc2cccc(OC(F)F)c2)N=C1c1ccc(Cl)c(Cl)c1", "note": "[(S)-4]", "values": [{"measurement": "remaining binding at 1 µM", "setting": "PIP5K1C", "result": 86, "unit": "%"}, {"measurement": "remaining binding at 1 µM", "setting": "NLK", "result": 100, "unit": "%"}, {"measurement": "remaining binding at 1 µM", "setting": "IRAK3", "result": 93, "unit": "%"}, {"measurement": "remaining binding at 1 µM", "setting": "ERN1", "result": 93, "unit": "%"}, {"measurement": "remaining binding at 1 µM", "setting": "TTK", "result": 82, "unit": "%"}, {"measurement": "remaining binding at 1 µM", "setting": "YSK4", "result": 93, "unit": "%"}, {"measurement": "remaining binding at 1 µM", "setting": "GRK4", "result": 98, "unit": "%"}, {"measurement": "remaining binding at 1 µM", "setting": "PIP5K1A", "result": 70, "unit": "%"}, {"measurement": "remaining binding at 1 µM", "setting": "TRPM6", "result": 80, "unit": "%"}, {"measurement": "remaining binding at 1 µM", "setting": "SNRK", "result": 85, "unit": "%"}, {"measurement": "remaining binding at 1 µM", "setting": "MEK6", "result": 74, "unit": "%"}, {"measurement": "remaining binding at 1 µM", "setting": "MAP3K15", "result": 69, "unit": "%"}, {"measurement": "remaining binding at 1 µM", "setting": "KIT(L576P)", "result": 85, "unit": "%"}, {"measurement": "remaining binding at 1 µM", "setting": "STK16", "result": 84, "unit": "%"}, {"measurement": "remaining binding at 1 µM", "setting": "EGFR(T790M)", "result": 86, "unit": "%"}, {"measurement": "remaining binding at 1 µM", "setting": "TAOK2", "result": 91, "unit": "%"}, {"measurement": "remaining binding at 1 µM", "setting": "CDK8", "result": 92, "unit": "%"}, {"measurement": "remaining binding at 1 µM", "setting": "INSRR", "result": 85, "unit": "%"}, {"measurement": "remaining binding at 1 µM", "setting": "PRKX", "result": 100, "unit": "%"}, {"measurement": "remaining binding at 1 µM", "setting": "CSF1R", "result": 100, "unit": "%"}, {"measurement": "remaining binding at 1 µM", "setting": "FGR", "result": 100, "unit": "%"}, {"measurement": "remaining binding at 1 µM", "setting": "PIP5K2B", "result": 100, "unit": "%"}, {"measurement": "remaining binding at 1 µM", "setting": "TRKA", "result": 93, "unit": "%"}, {"measurement": "remaining binding at 1 µM", "setting": "KIT(D816H)", "result": 95, "unit": "%"}, {"measurement": "remaining binding at 1 µM", "setting": "[1]", "result": 100, "unit": "%"}, {"measurement": "remaining binding at 1 µM", "setting": "CSK", "result": 91, "unit": "%"}, {"measurement": "remaining binding at 1 µM", "setting": "[2]", "result": 77, "unit": "%"}, {"measurement": "remaining binding at 1 µM", "setting": "NEK4", "result": 100, "unit": "%"}, {"measurement": "remaining binding at 1 µM", "setting": "SNARK", "result": 100, "unit": "%"}, {"measurement": "remaining binding at 1 µM", "setting": "HUNK", "result": 94, "unit": "%"}, {"measurement": "remaining binding at 1 µM", "setting": "ITK", "result": 94, "unit": "%"}, {"measurement": "remaining binding at 1 µM", "setting": "NDR1", "result": 82, "unit": "%"}, {"measurement": "remaining binding at 1 µM", "setting": "ADCK4", "result": 81, "unit": "%"}, {"measurement": "remaining binding at 1 µM", "setting": "ULK1", "result": 64, "unit": "%"}, {"measurement": "remaining binding at 1 µM", "setting": "VRK2", "result": 93, "unit": "%"}, {"measurement": "remaining binding at 1 µM", "setting": "ULK2", "result": 100, "unit": "%"}, {"measurement": "remaining binding at 1 µM", "setting": "SRPK3", "result": 79, "unit": "%"}, {"measurement": "remaining binding at 1 µM", "setting": "BLK", "result": 88, "unit": "%"}, {"measurement": "remaining binding at 1 µM", "setting": "PRKCD", "result": 89, "unit": "%"}, {"measurement": "remaining binding at 1 µM", "setting": "MYO3A", "result": 100, "unit": "%"}, {"measurement": "remaining binding at 1 µM", "setting": "ULK3", "result": 74, "unit": "%"}, {"measurement": "remaining binding at 1 µM", "setting": "VEGFR2", "result": 100, "unit": "%"}, {"measurement": "remaining binding at 1 µM", "setting": "[3]", "result": 66, "unit": "%"}]}]}
